Legend:
[1] = target: P2X purinoceptor 4 (Homo sapiens, UniProt Q99571); test: Antagonist activity at human P2X4 receptor overexpressed in human 1321N1 cells assessed as inhibition of ATP-induced calcium responses by Fluo-4 AM/Ca2+ Flux assay; format: cell-based; settings: read-out: IC50
[2] = Octanol/PBS partition coefficient, log D of the radiolabeled compound at 420 to 460 kBq at pH 7.4 by gamma-counting analysis; format: physicochemical; settings: dose 420-460 kBq
[3] = Stability in human serum measured up to 90 mins at 3.1 to 8.7 MBq by analytical radio-HPLC analysis; format: ADME, cell-free; settings: dose 3.1-8.7 MBq, read-out: Stability
[4] = Stability in mouse serum measured up to 90 mins at 3.1 to 8.7 MBq by analytical radio-HPLC analysis; format: ADME, cell-free; settings: dose 3.1-8.7 MBq, read-out: Stability
[5] = In vivo biodistribution in adult female C57Bl/6 mouse assessed as accumulation in bladder at 5 MBq, iv measured after 15 to 85 mins by PET imaging analysis; format: ADME, organism-based, Urinary bladder; settings: time 15-85 min
[6] = In vivo biodistribution in adult female C57Bl/6 mouse assessed as accumulation in intestine at about 5 MBq, iv measured after 2 to 85 mins by PET imaging analysis; format: ADME, organism-based; settings: time 2-85 min
[7] = Lipophilicity, logD of compound in n-octanol and buffer at pH 7.4 by LC-MS analysis; format: physicochemical
[8] = Plasma protein binding in unknown origin; format: ADME, cell-free; settings: read-out: PPB (converted)
[9] = Metabolic stability in C57BL/6 mouse liver microsomes assessed as remaining parent compound by UPLC-UV/MS analysis; format: ADME, Microsome
[10] = In vivo biodistribution in adult female C57Bl/6 mouse assessed as accumulation in liver at about 5 MBq, iv measured after 15 mins by PET imaging analysis; format: ADME, organism-based; settings: 0.25 h
[11] = In vivo biodistribution in adult female C57Bl/6 mouse assessed as accumulation in gall bladder at about 5 MBq, iv measured after 30 mins by PET imaging analysis; format: ADME, organism-based; settings: 0.5 h
[12] = In vivo biodistribution in adult female C57Bl/6 mouse assessed as accumulation in bladder at 5 MBq, iv measured after 2 to 85 mins by PET imaging analysis; format: ADME, organism-based, Urinary bladder; settings: time 2-85 min

P2X purinoceptor 4, sequence (Q99571 whole entry): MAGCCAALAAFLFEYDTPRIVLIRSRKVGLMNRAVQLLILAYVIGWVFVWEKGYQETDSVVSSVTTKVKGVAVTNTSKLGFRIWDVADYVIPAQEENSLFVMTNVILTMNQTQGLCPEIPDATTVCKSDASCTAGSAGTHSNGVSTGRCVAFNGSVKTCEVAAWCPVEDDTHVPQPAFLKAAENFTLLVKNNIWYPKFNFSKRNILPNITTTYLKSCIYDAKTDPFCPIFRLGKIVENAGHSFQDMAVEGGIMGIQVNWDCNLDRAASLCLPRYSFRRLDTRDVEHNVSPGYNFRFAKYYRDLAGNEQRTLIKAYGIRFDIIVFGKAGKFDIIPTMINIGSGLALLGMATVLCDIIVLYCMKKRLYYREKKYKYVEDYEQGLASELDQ

Nc1ccc(N2C(=O)CC(=O)Nc3c2ccc2ccccc32)cc1
IC50 [1]: 990 nM

COc1cc(F)ccc1S(=O)(=O)Nc1ccc(N2C(=O)CC(=O)Nc3c2ccc2ccccc32)cc1
IC50 [1]: 59 nM

O=C1CC(=O)N(c2ccc(NS(=O)(=O)c3ccc(Br)cc3Cl)cc2)c2ccc3ccccc3c2N1
IC50 [1]: 1590 nM

O=C1CC(=O)N(c2ccc(NS(=O)(=O)c3cccc4ccccc34)cc2)c2ccc3ccccc3c2N1
IC50 [1]: 1650 nM

Nc1ccc(N2C(=O)CC(=O)Nc3c2ccc2ccccc32)cn1
IC50 [1]: 9920 nM

Cc1cc(Br)ccc1S(=O)(=O)Nc1ccc(N2C(=O)CC(=O)Nc3c2ccc2ccccc32)cc1
IC50 [1]: 263 nM

Cc1ccc(F)cc1S(=O)(=O)Nc1ccc(N2C(=O)CC(=O)Nc3c2ccc2ccccc32)cc1
IC50 [1]: 179 nM

COc1ccc(Br)cc1S(=O)(=O)Nc1ccc(N2C(=O)CC(=O)Nc3c2ccc2ccccc32)cc1
IC50 [1]: 2330 nM

O=C1CC(=O)N(c2ccc(NC(=O)c3cccnc3F)cc2)c2ccc3ccccc3c2N1
IC50 [1]: 2410 nM

COc1ccccc1S(=O)(=O)Nc1ccc(N2C(=O)CC(=O)Nc3c2ccc2ccccc32)cc1
IC50 [1]: 90 nM

O=C1CC(=O)N(c2ccc(NS(=O)(=O)c3ccc(B(O)O)cc3Cl)cc2)c2ccc3ccccc3c2N1
IC50 [1]: 891 nM

O=C1CC(=O)N(c2ccc(NC(=O)c3ccccc3F)cc2)c2ccc3ccccc3c2N1
IC50 [1]: 2300 nM

N#Cc1ccc(S(=O)(=O)Nc2ccc(N3C(=O)CC(=O)Nc4c3ccc3ccccc43)cc2)c(Cl)c1
IC50 [1]: 14100 nM

O=C(Cc1cc(F)ccc1Cl)Nc1ccc(N2C(=O)CC(=O)Nc3c2ccc2ccccc32)cc1
IC50 [1]: 442 nM

Cc1cc([18F])ccc1CS(=O)(=O)Nc1ccc(N2C(=O)CC(=O)Nc3c2ccc2ccccc32)cc1
logD [2]: 3.43 | remaining at […] [3]: > 99% | remaining at […] [4]: > 99% | Drug uptake [5]: Active | Drug uptake [6]: Active

O=C1CC(=O)N(c2ccc(NS(=O)(=O)Cc3c(Cl)cccc3Cl)cc2)c2ccc3ccccc3c2N1
IC50 [1]: 74 nM

CN(c1ccc(N2C(=O)CC(=O)Nc3c2ccc2ccccc32)cc1)S(=O)(=O)c1ccccc1
IC50 [1]: 683 nM

O=C1CC(=O)N(c2ccc(NS(=O)(=O)Cc3ccccc3Cl)nc2)c2ccc3ccccc3c2N1
IC50 [1]: 76 nM

Cc1cc(B(O)O)ccc1CS(=O)(=O)Nc1ccc(N2C(=O)CC(=O)Nc3c2ccc2ccccc32)cc1
IC50 [1]: 372 nM

O=C1CC(=O)N(c2ccc(NS(=O)(=O)c3ccc(F)cc3Br)cc2)c2ccc3ccccc3c2N1
IC50 [1]: 64 nM

O=C1CC(=O)N(c2ccc(NS(=O)(=O)Cc3cc(F)ccc3Cl)cc2)c2ccc3ccccc3c2N1
IC50 [1]: 81 nM

COc1ccc(S(=O)(=O)Nc2ccc(N3C(=O)CC(=O)Nc4c3ccc3ccccc43)cc2)c(Cl)c1
IC50 [1]: 5970 nM

Cc1cc(F)ccc1CS(=O)(=O)Nc1ccc(N2C(=O)CC(=O)Nc3c2ccc2ccccc32)nc1
IC50 [1]: 25 nM | logD [7]: 2.36 | fraction unbound [8]: 0.05 | Stability [9]: 57%

O=C1CC(=O)N(c2ccc(NS(=O)(=O)Cc3ccccc3Cl)cn2)c2ccc3ccccc3c2N1
IC50 [1]: 17 nM

O=C(Cc1cc(Br)ccc1Cl)Nc1ccc(N2C(=O)CC(=O)Nc3c2ccc2ccccc32)cc1
IC50 [1]: 1000 nM

O=C1CC(=O)N(c2ccc(NC(=O)c3ccccc3Cl)cc2)c2ccc3ccccc3c2N1
IC50 [1]: 481 nM

COc1ccc(F)cc1S(=O)(=O)Nc1ccc(N2C(=O)CC(=O)Nc3c2ccc2ccccc32)cc1
IC50 [1]: 473 nM

O=C1CC(=O)N(c2ccc(NS(=O)(=O)c3cccnc3Cl)cc2)c2ccc3ccccc3c2N1
IC50 [1]: 318 nM

O=C1CC(=O)N(c2ccc(NS(=O)(=O)c3ccccc3I)cc2)c2ccc3ccccc3c2N1
IC50 [1]: 264 nM

COc1ccc(S(=O)(=O)Nc2ccc(N3C(=O)CC(=O)Nc4c3ccc3ccccc43)cc2)cc1
IC50 [1]: 3950 nM

Cc1cc([18F])ccc1S(=O)(=O)Nc1ccc(N2C(=O)CC(=O)Nc3c2ccc2ccccc32)cc1
logD [2]: 3.5 | remaining at […] [3]: > 99% | remaining at […] [4]: > 99% | Drug uptake [10]: Active | Drug uptake [11]: Active | Drug uptake [12]: Not_active

O=C1CC(=O)N(c2ccc(NS(=O)(=O)c3ccc(F)cc3)cc2)c2ccc3ccccc3c2N1
IC50 [1]: 24800 nM

CN1C(=O)CC(=O)N(c2ccc(N(C)S(=O)(=O)c3ccccc3)cc2)c2ccc3ccccc3c21
IC50 [1]: > 10000 nM

Cc1cc(B(O)O)ccc1S(=O)(=O)Nc1ccc(N2C(=O)CC(=O)Nc3c2ccc2ccccc32)cc1
IC50 [1]: 48 nM
